Results published in US10259817B2, “Crystal (6S,9aS)-N-benzyl-8-({6-[3-(4-ethylpiperazin-1-yl)azetidin-1-yl]pyridin-2-yl}methyl)-6-(2-fluoro-4-hydroxybenzyl)-4,7-dioxo-2-(prop-2-en-1-yl)hexahydro-2H-pyrazino[2,1-c][1,2,4]triazine-1(6H)-carboxamide” (Eisai R&D Management Co., Ltd., priority 2015, dated 2019).

Tests used:
[1] = tested on: human chronic myologenous leukemia cell strain K562; settings: day 28; Dasatinib 5 mg/kg alone, oral qd 5 days + 2-day holiday, two cycles
Text: A preparation of a human chronic myologenous leukemia cell strain K562 (which had been cultured in a RPMI-1640 liquid culture medium supplemented with 10% FBS and penicillin/streptomycin) which was so prepared with PBS (Wako Pure Chemical Industries, Ltd.; Cat#045-29795) that the density became 2×10^8 cells/mL was mixed with [sequence] (BD Biosicence, Cat#: 354234) at a mixing ratio of 1:1, thereby preparing a cell suspension having a density of 1×10^8 cells/mL. The resulting cell suspension was transplanted subcutaneously into the right flank of each of six-week-old nude mice (CAnN.Cg-Foxn1nu/CrlCrlj, female, Charles River Laboratories Japan) at a dose of 100 μL. Seven days after the transplantation, the shorter diameter and the longer diameter of a tumor were measured using an electronic digital caliper (Digimatic™ Caliper, Mitutoyo Corporation) to calculate the tumor volume in accordance with the following equation. Tumor volume (mm^3)=(longer diameter (mm))×(shorter diameter (mm))×(shorter diameter (mm))/2
The mice were grouped in such a manner that the average value of the tumor volumes in mice in a group, which were determined on the basis of the tumor volume on the first day of the administration. […]

Wnt signal = assay: Detection of Wnt signal (TOPglow luciferase reporter, LiCl-stimulated HEK293 clone); assay type: cell-based; settings: Homo sapiens; HEK293 pNeo-TOP clone, LiCl added, luciferase emission; read-out: IC50, concentration required for inhibiting the Wnt signal activity by 50%
Text: The plasmid pNeo-TOP was introduced into human fetus-derived renal cell strain HEK293, then a compound was selected using G418, and then a cell clone strain was established by a limiting dilution method. The cell clone strain was subjected to a Wnt signal detection test.
The cell clone strain was subcultured in a D-MEM glucose-rich culture medium (Wako Pure Chemical Industries, Ltd.) containing 10% FBS, and cells in a growth phase were used in the test. Cells were collected using trypsin-EDTA, the number of the cells was counted, and then the cells were suspended in a D-MEM glucose-rich culture medium containing 10% FBS so that the number of cells became 2×10^5 cells/mL. The cell suspension was added to a 96-well cell culture plate (Greiner Bio-One Co., Ltd., product number: 655083) in an amount of 0.1 mL/well and then cultured overnight in a 5% CO2 incubator (37° C.). After the culturing, a substance to be tested, which was dissolved in DMSO, was diluted with a D-MEM glucose-rich culture medium containing 10% of FBS and 80 mM of LiCl to produce a sample solution. The sample solution (0.1 mL) was added to each well and then cultured in a 5% CO2 incubator (37° C.) overnight. […] The plate was put on a plate mixer for several seconds, and then the emission of light from each well was measured using a EnVision™ Multilabel plate reader (PerkinElmer Co., Ltd.). […]

Row | IC50 (Wnt signal) | SMILES | the number of individuals in which a tumor was not observed by visual judgment/total number of administered individuals [1]
1 |  | Cc1nc(Nc2ncc(C(=O)Nc3c(C)cccc3Cl)s2)cc(N2CCN(CCO)CC2)n1 [Dasatinib] | 0/9
2 | 60 nM | C=CCN1CC(=O)N2[C@@H](Cc3ccc(O)cc3F)C(=O)N(Cc3cccc(N4CC(N5CCN(CC)CC5)C4)n3)C[C@@H]2N1C(=O)NCc1ccccc1 [Example 1, (6S,9aS)-N-benzyl-8-({6-[3-(4-ethylpiperazin-1-yl)azetidin-1-yl]pyridin-2-yl}methyl)-6-(2-fluoro-4-hydroxybenzyl)-4,7-dioxo-2-(prop-2-en-1-yl)hexahydro-2H-pyrazino[2,1-c][1,2,4]triazine-1(6H)-carboxamide] | 
